In patent US9199967B2, “Substituted heterocyclic amine compounds as cholestryl ester-transfer protein (CETP) inhibitors” (Dr. Reddy's Laboratories Ltd., priority 2011, dated 2015):

Biological target: T1, rCETP (Homo sapiens, UniProt P11597)
T1 sequence (P11597 18-493): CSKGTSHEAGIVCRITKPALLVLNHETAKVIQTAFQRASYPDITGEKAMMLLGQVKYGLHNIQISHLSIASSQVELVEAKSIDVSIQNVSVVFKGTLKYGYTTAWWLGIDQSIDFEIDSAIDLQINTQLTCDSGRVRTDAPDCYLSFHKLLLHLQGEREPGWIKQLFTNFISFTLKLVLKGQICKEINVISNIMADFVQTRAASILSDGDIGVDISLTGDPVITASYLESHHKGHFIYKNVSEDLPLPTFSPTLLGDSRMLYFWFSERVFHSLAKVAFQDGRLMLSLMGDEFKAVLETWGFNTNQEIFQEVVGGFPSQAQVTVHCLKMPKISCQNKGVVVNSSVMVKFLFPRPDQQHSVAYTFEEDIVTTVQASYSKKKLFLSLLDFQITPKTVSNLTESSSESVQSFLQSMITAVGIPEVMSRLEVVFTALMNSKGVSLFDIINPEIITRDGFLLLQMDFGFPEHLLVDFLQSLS
Test: In vitro CETP inhibition assay, fluorometric kit (ROAR Biomedicals)
Format: biochemical
Conditions: rCETP 50 ng, 37° C., 90 minutes, fluorescence Ex 492 nm / Em 516 nm; read-out: IC50 (nM), inhibitory effect on CETP
Text: An in vitro cholesteryl ester transfer protein inhibition (CETP) assay using a commercially available fluorometric assay kit from ROAR Biomedicals, USA was used to measure the CETP inhibition activity of the compounds of this application. This assay kit uses a donor molecule containing a fluorescent self-quenched neutral lipid that is transferred to an acceptor molecule in the presence of CETP enzyme. The CETP-mediated transfer of the fluorescent neutral lipid to the acceptor molecule results in an increase in fluorescence (Excitation: 492 nm; Emission: 516 nm).
A 20 mM stock solution of compounds were prepared in 100% DMSO and further dilutions were made such that the final concentration of DMSO in the reaction mix was 1%. […] The assay was performed in 96 well microplates and in each well, the reaction mixture contained 190 μl of assay buffer (150 mM NaCl, 10 mM Tris and 2 mM EDTA, pH-7.4), 4 μl of donor particle, 4 IA of acceptor particle, rCETP (50 ng) and 2 μl of test compound at varying final concentration of 0.1, 1, 10, 100, 1000 & 10000 nM. Two control reactions were performed, one without test compound (positive control) and the other without the rCETP (negative control). The reactions were incubated at 37° C. for 90 minutes and the reaction plate was transferred to a PCR machine MX3005P and the fluorescence units (FLU) were quantified (Excitation: 492 nm; Emission: 516 nm).
The negative control values were subtracted from the positive control as well as all the test values to correct for background fluorescence. The percentage inhibition of activity is calculated by using the following equation: % Inhibition of CETP activity=[100−(100×(FLU in test/FLU in positive control))].
The half maximal inhibitory concentration (IC50) was determined using the BIOGRAPH software (version no. 3.3).

Q: Which IC50 does the source give for `CC(=O)c1cnc(N(Cc2cc(C(F)(F)F)cc(C(F)(F)F)c2)Cc2cc3c(nc2N(CC2CC2)CC2CC2)C(C)(C)CC3)nc1` [Example 4, 1-(2-(((2-(bis(cyclopropylmethyl)amino)-7,7-dimethyl-6,7-dihydro-5H-cyclopenta[b]pyridin-3-yl)methyl)(3,5-bis(trifluoromethyl)benzyl)amino)pyrimidin-5-yl)ethanone] here?
A: Its IC50 is ~50 nM.

Q: Which IC50 does the source give for `CC1(C)CCc2cc(CN(Cc3cc(C(F)(F)F)cc(C(F)(F)F)c3)c3ncc(N4CCOCC4)cn3)c(N(CC3CC3)CC3CC3)nc21` [Example 3, 3-(((3,5-bis(trifluoromethyl)benzyl)(5-morpholinopyrimidin-2-yl)amino)methyl)-N,N-bis(cyclopropylmethyl)-7,7-dimethyl-6,7-dihydro-5H-cyclopenta[b]pyridin-2-amine] here?
A: Its IC50 is ~20 nM.

Q: With `CC1(C)CCc2cc(CN(Cc3cc(C(F)(F)F)cc(C(F)(F)F)c3)c3ncc(-c4cc[nH]n4)cn3)c(N(CC3CC3)CC3CC3)nc21` [Example 6, 3-(((5-(1H-pyrazol-3-yl)pyrimidin-2-yl)(3,5-bis(trifluoromethyl)benzyl)amino)methyl)-N,N-bis(cyclopropylmethyl)-7,7-dimethyl-6,7-dihydro-5H-cyclopenta[b]pyridin-2-amine] as the compound, how does the IC50 read?
A: The IC50 was ~29 nM.

Q: Which IC50 does the source give for `CC1(C)CCc2cc(CN(Cc3cc(C(F)(F)F)cc(C(F)(F)F)c3)c3ncc(-c4ccon4)cn3)c(N(CC3CC3)CC3CC3)nc21` [Example 7, 3-(((3,5-bis(trifluoromethyl)benzyl)(5-(isoxazol-3-yl)pyrimidin-2-yl)amino)methyl)-N,N-bis(cyclopropylmethyl)-7,7-dimethyl-6,7-dihydro-5H-cyclopenta[b]pyridin-2-amine] here?
A: Its IC50 is ~33 nM.

Q: For `CC1CCCc2cc(CN(Cc3cc(C(F)(F)F)cc(C(F)(F)F)c3)c3ncc(N4CCOCC4)cn3)c(N(CC3CC3)CC3CC3)nc21` (stereo not drawn) [Example 11, 3-(((3,5-bis(trifluoromethyl)benzyl)(5-morpholinopyrimidin-2-yl)amino)methyl)-N,N-bis(cyclopropylmethyl)-8-methyl-5,6,7,8-tetrahydroquinolin-2-amine], which IC50 is on record?
A: The IC50 was ~40 nM.

Q: `CC1(C)CCc2cc(CN(Cc3cc(C(F)(F)F)cc(C(F)(F)F)c3)c3ccc4[nH]c(=O)oc4c3)c(N(CC3CC3)CC3CC3)nc21` [Example 17, 6-(((2-(bis(cyclopropylmethyl)amino)-7,7-dimethyl-6,7-dihydro-5H-cyclopenta[b]pyridin-3-yl)methyl)(3,5-bis(trifluoromethyl)benzyl)amino)benzo[d]oxazol-2(3H)-one] was tested. Which IC50 did it give?
A: Its IC50 is ~16 nM.

Q: `CC1(C)CCc2cc(CN(Cc3cc(C(F)(F)F)cc(C(F)(F)F)c3)c3ncc(C(N)=O)cn3)c(N(CC3CC3)CC3CC3)nc21` [Example 9, 2-(((2-(bis(cyclopropylmethyl)amino)-7,7-dimethyl-6,7-dihydro-5H-cyclopenta[b]pyridin-3-yl)methyl)(3,5-bis(trifluoromethyl)benzyl)amino) pyrimidine-5-carboxamide] was tested. Which IC50 did it give?
A: The IC50 was ~94 nM.

Q: Which IC50 does the source give for `CC1CCc2cc(CN(Cc3cc(C(F)(F)F)cc(C(F)(F)F)c3)c3ncc(N4CCOCC4)cn3)c(N(CC3CC3)CC3CC3)nc21` (stereo not drawn) [Example 10, 3-(((3,5-bis(trifluoromethyl)benzyl)(5-morpholinopyrimidin-2-yl)amino)methyl)-N,N-bis(cyclopropylmethyl)-7-methyl-6,7-dihydro-5H-cyclopenta[b]pyridin-2-amine] here?
A: Its IC50 is ~90 nM.

Q: Which IC50 does the source give for `CC1(C)CCc2cc(CN(Cc3cc(C(F)(F)F)cc(C(F)(F)F)c3)c3ncc(N4CCCC4=O)cn3)c(N(CC3CC3)CC3CC3)nc21` [Example 2, 1-(2-(((2-(bis(cyclopropylmethyl)amino)-7,7-dimethyl-6,7-dihydro-5H-cyclopenta[b]pyridin-3-yl)methyl)(3,5-bis(trifluoromethyl)benzyl)amino)pyrimidin-5-yl) pyrrolidin-2-one] here?
A: Its IC50 is ~29 nM.
